Here are results for 2 compounds from patent US12168026B2, “Methods and compositions for wound healing” (priority 2018, dated 2024).

Molecules are shown by their SMILES. Counter-ions that a name gives are not always drawn.

Data set [1] deals with P. aeruginosa (ATCC 27853). As to the kind of experiment: Antibacterial activity of solutions of Bp, Ag+ or their mixture (viable counts after 24-h incubation). Type of data set: cell-based. Conditions: for CFU decrease of P. aeruginosa: 10^7 CFU in 500 μL HBSS. The protocol: Viable bacterial counts remaining in suspension following the 24-h incubation were determined by dilution and plating.

Data set [2] relates to NIH 3T3 mouse fibroblast cells. The protocol: The mouse fibroblast cell line NIH-3T3, obtained from ATCC (Manassas, VA) was used for all in vitro cell-based experiments. Cell cultures were maintained at 37° C. and were fed with DMEM growth medium supplemented with 10% calf bovine serum (CBS), 2×10^−[…] (Invitrogen, Carlsbad, CA), and 1% Penicillin Streptomycin. Cells were seeded with 1.0×10^4 cells/well of the 96-well plate and were allowed to attach on the bottom of wells for 24 h. After incubation, cells were washed with […] Phosphate Buffer Saline (PBS); pH 7.4). […] Cells treated with 1% Triton X-100 (Sigma Aldrich, St Louis, MO) were used as controls for complete cell death. For the evaluation of cytotoxicity, the CellTiter 96 AQueous non-radioactive assay (Promega, Germany) was performed. This assay measures the conversion (reduction) of a weakly colored tetrazolium salt of MTS (3-{4,5-dimethylthiazol-2-yl}-5-{3-carboxymethoxyphenyl}-2-{4-sulfophenyl}-2H-tetrazolium) to brightly colored formazan by mitochondrial dehydrogenase of metabolically active (live) cells. The amount of formazan formed varies proportionally with the number of live cells. The wells were rinsed with PBS to remove non-adherent cells and then incubated in a serum-free medium containing 20% MTS reagent for 3 h at 37° C. Then, the absorbance was read in a spectrophotometric plate reader at 490 nm (BioTek Instruments, Winooski, VT).
Briefly, fibroblasts were allowed to attach on the bottom of 96-well plates (within 24-h incubation). […] Following incubation, the viability of the cells was determined by measuring cellular mitochondrial dehydrogenase activity (see Materials and Methods for details).

Data set [3] relates to P. aeruginosa (ATCC 27853). To be noted: Ag+ 0.4 μg mL^−1; cited from earlier work.
Data set [4] relates to rats wounds. Conditions: 5 mg mL^−1 at local incisions of rats wounds; cited from earlier work.
The conditions of data set [5]: Bp 2.5 mg mL^−1; cited from earlier work.

As for `O=[N+]([O-])[O-].[Ag+]` [Ag^+, Silver nitrate], the “CFU decrease of P. aeruginosa” value in data set [1] (Ag+ 0.3 μg mL^−1, 24 h) stood at 3 log10 CFU; in data set [1] (Ag+ 0.4 μg mL^−1, 24 h) it was 6 log10 CFU. Moreover, the toxicity toward fibroblasts entry in data set [2] (Ag+ 0.4 μg mL^−1 and up to 1.2 μg mL^−1, 24 h) is “not to cause significant toxicity”. In addition, the “effect on viability of mammalian cells such as fibroblasts” value in data set [2] (Ag+ 1.7 μg mL^−1 and Bp 0.25 mg mL^−1) is on record as “do not significantly reduce the viability”. Moreover, in data set [3], the “CFU decrease of P. aeruginosa (reported)” value was 6 log10 CFU.

`CCCCN1CCCCC1C(=O)Nc1c(C)cccc1C` (stereo not shown) [Bp, bupivacaine hydrochloride monohydrate]: in data set [1] (Bp 0.5 mg mL^−1, 24 h), the antimicrobial activity entry is on record as “does not exhibit antimicrobial activity”. Further, the “cytotoxicity limit (concentration of agent that caused a ~50% decrease in viability of cells)” value in data set [2] (mouse, 24 h, pH 7.4) worked out at 1.2 µg/mL. Further, in data set [4], the collagen production result was “decrease collagen production” and the inflammation result is on record as “significant inflammation”. For the same compound, in data set [5], the “antimicrobial activity (reported)” value is “exhibit antimicrobial activity”.
